Assay [1] addresses VIM-2 (Veronese metallo-β-lactamase-2) (Escherichia coli, UniProt Q5U7L7). The assay is described as follows: Enzyme inhibition assay, VIM-2. To be noted: read-out: pIC50 VIM-2 (converted). The assay is classed as biochemical. How it is done: (§1) The biological activity of the compounds of the present invention was tested using standard assay protocols.^7 The following representative enzymes NDM-1 (New Delhi metallo-β-lactamase-1), IMP-1 (Imipenemase-1) and VIM-2 (Veronese metallo-β-lactamase-2) were selected from different clinically relevant B1 metallo-β-lactamases.

In a further assay the target is IMP-1 (Imipenemase-1) (Serratia marcescens, UniProt P52699). The assay is described as follows: Enzyme inhibition assay, IMP-1. The assay is classed as biochemical. To be noted: read-out: pIC50 IMP-1 (converted). As for the experimental part: as §1
The target of assay [2] is NDM-1 (New Delhi metallo-β-lactamase-1) (Klebsiella pneumoniae, UniProt C7C422). The experiment in a line: Enzyme inhibition assay, NDM-1. The assay is classed as biochemical. To be noted: read-out: pIC50 NDM-1 (converted). As for the experimental part: as §1
Another assay deals with E. coli IR60. The assay is described as follows: Meropenem MIC, CLSI broth microdilution. To be noted: inhibitor 10 μg/ml. The format is cell-based. As for the experimental part: (§2) CLSI, Wayne, Pa.) in the absence of each inhibitor or in its presence at the concentration stated. In each case the inhibitor solution was added to broth at 0.1% v/v to achieve the required final concentration; DMSO was used to dissolve inhibitors.
(§3) For initial evaluations of the in vitro cell based activity of indole carboxylates we used well characterized bacterial strains (e.g. K. pneumoniae 5055; E. coli ATCC 25713) transformed with broad host range plasmids (e.g. pSU18 and derivatives) encoding few metallo-β-lactamases produced using their physiological (integron) promoters. We also tested a clinical strain, IR60 in the initial studies.^8
IR60 is a clinically strain original from India.^8 IR60 is also a multiresistant clinical strain.

The subject of the next assay is E. coli 25922 (control). The experiment in a line: Meropenem MIC, CLSI broth microdilution. The assay is classed as cell-based. The settings on record: inhibitor 10 μg/ml. As for the experimental part: as §2, §3
In general terms: Dilution methods test growth across graded concentrations, often in twofold steps.

Assay [3] has as its system K. pneumoniae 5055 (control). The assay is described as follows: Meropenem MIC, CLSI broth microdilution. To be noted: for Meropenem MIC in presence of inhibitor: inhibitor 10 μg/ml. The assay is classed as cell-based. As for the experimental part: as §2, §3
The subject of assay [4] is K. pneumoniae 5055 + NDM-1. The experiment in a line: Meropenem MIC, CLSI broth microdilution. To be noted: inhibitor 10 μg/ml. The format is cell-based. As for the experimental part:
as §2, §3

The next assay has as its system E. coli EC10 NDM-1. The experiment in a line: Meropenem MIC, clinically derived strains. The assay is classed as cell-based. The settings on record: inhibitor 10 μg/ml. How it is done:
as §2

A further assay concerns K. pneumoniae 5055 IMP-1. The assay is described as follows: Meropenem MIC, clinically derived strains. The assay is classed as cell-based. To be noted: for Meropenem MIC in presence of inhibitor: inhibitor 10 μg/ml. As for the experimental part:
as §2
(§4) The results shown in Table 2 reveal that compounds of formula (I) are active in cells, including clinically relevant bacterial strains. Further studies were carried out to determine if compound of formula (I) potentiates BLA activity in clinically derived strains containing IMP-4, […] or NDM-1, which are the most commonly observed MBLs in clinical isolates.

The test system of a further assay is K. pneumoniae A34 VIM-4. The assay is described as follows: Meropenem MIC, clinically derived strains. The format is cell-based. To be noted: for Meropenem MIC in presence of inhibitor: inhibitor 10 μg/ml. As for the experimental part:
as §2, §4

For another assay, the system named is K. pneumoniae B12 IMP-4. The experiment in a line: Meropenem MIC, clinically derived strains. The settings on record: for Meropenem MIC in presence of inhibitor: inhibitor 10 μg/ml. The assay is classed as cell-based. As for the experimental part:
as §2, §4

The test system of another assay is K. pneumoniae B19 IMP-4. The experiment in a line: Meropenem MIC, clinically derived strains. The assay is classed as cell-based. To be noted: for Meropenem MIC in presence of inhibitor: inhibitor 10 μg/ml. How it is done: as §2, §4
A further assay deals with K. pneumoniae IR16 NDM-1. The experiment in a line: Meropenem MIC, clinically derived strains. The format is cell-based. To be noted: for Meropenem MIC in presence of inhibitor: inhibitor 10 μg/ml. How it is done: as §2, §4
Assay [5] has as its system K. pneumonia strain containing most clinically significant MBLs. The experiment in a line: Screening against K. pneumonia strain containing MBLs, overall statement. The format is cell-based. To be noted: Table 4. How it is done: as §2

Where only a bound is given, the exact number is not on record here.

From patent US11439622B2 (OXFORD UNIVERSITY INNOVATION LIMITED, priority 2015, dated 2022) come the findings set out here.

Chain of NDM-1 (New Delhi metallo-β-lactamase-1) (C7C422 29-270, looked up, species assumed): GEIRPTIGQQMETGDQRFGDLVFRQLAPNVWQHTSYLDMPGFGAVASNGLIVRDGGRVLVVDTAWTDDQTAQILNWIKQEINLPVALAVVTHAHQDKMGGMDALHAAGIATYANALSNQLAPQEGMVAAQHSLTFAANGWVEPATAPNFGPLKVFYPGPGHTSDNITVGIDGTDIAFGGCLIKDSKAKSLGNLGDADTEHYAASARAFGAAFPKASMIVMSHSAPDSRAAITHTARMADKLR
Chain of IMP-1 (Imipenemase-1) (P52699 19-246, looked up, species assumed): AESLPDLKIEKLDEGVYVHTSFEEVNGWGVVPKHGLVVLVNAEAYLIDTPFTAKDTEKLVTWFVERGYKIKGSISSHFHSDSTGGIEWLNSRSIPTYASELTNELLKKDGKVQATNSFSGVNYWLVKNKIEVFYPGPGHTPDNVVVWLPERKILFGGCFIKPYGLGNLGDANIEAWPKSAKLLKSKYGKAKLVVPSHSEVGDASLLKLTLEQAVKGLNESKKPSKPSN

For the compound `Cc1cccc2c(-c3ccc(S(C)(=O)=O)cc3)c(C(=O)O)[nH]c12` [Example 12, 7-methyl-3-(4-(methylsulfonyl)phenyl)-1H-indole-2-carboxylic acid], the IC50 was 316 nM in assay [1], 12.6 µM on IMP-1 (Imipenemase-1) and 12.6 nM in assay [2]. Besides, the Meropenem MIC in presence of inhibitor in the assay with E. coli IR60 was less than 0.5 µg/mL; with E. coli 25922 (control), less than 0.25 µg/mL; in assay [3], less than 0.25 µg/mL; in assay [4] it was 8 µg/mL; in the assay with E. coli EC10 NDM-1, 8 µg/mL; with K. pneumoniae 5055 IMP-1, 8 µg/mL. For the same compound, the Meropenem MIC in presence of inhibitor with K. pneumoniae A34 VIM-4 came out at 16 µg/mL; in the assay with K. pneumoniae B12 IMP-4, 8 µg/mL; in the assay on K. pneumoniae B19 IMP-4, 8 µg/mL; in the assay on K. pneumoniae IR16 NDM-1, 1 µg/mL.

As for `CC(C)c1cccc2c(-c3ccc(F)cc3)c(C(=O)O)[nH]c12` [Example 53, 3-(4-fluorophenyl)-7-isopropyl-1H-indole-2-carboxylic acid], the results for the IC50 (in [1]; on IMP-1 (Imipenemase-1); in assay [2]) were 31.6 nM, 0.501 µM and 12.6 nM, respectively. In addition, the Meropenem MIC in presence of inhibitor was less than 0.25 µg/mL with E. coli IR60; less than 0.25 µg/mL with E. coli 25922 (control); less than 0.25 µg/mL in assay [3]; 4 µg/mL in [4]; 1 µg/mL with E. coli EC10 NDM-1; 2 µg/mL with K. pneumoniae 5055 IMP-1. Besides, the Meropenem MIC in presence of inhibitor in the assay on K. pneumoniae A34 VIM-4 came to 4 µg/mL; in the assay with K. pneumoniae B12 IMP-4 it was 2 µg/mL; in the assay on K. pneumoniae B19 IMP-4, 1 µg/mL; with K. pneumoniae IR16 NDM-1 it was 1 µg/mL.

For the compound `CC(C)c1cccc2c(-c3cc(Cl)cc(Cl)c3)c(C(=O)O)[nH]c12` [Example 76, 3-(3,5-dichlorophenyl)-7-isopropyl-1H-indole-2-carboxylic acid], the figures for the IC50 (in [1]; at IMP-1 (Imipenemase-1); in assay [2]) were 3.98 nM, 0.0158 µM and 7.94 nM, respectively. Moreover, in assay [5], the “activity against all the MBLs” value is on record as “good activity”.

Take `C[C@@H](O)[C@H]1C(=O)N2C(C(=O)O)=C(S[C@@H]3CN[C@H](C(=O)N(C)C)C3)[C@H](C)[C@H]12` [Meropenem, meropenem, reference compound]: the Meropenem MICs in [3] (meropenem alone) is less than 0.25 µg/mL. The Meropenem MIC turned out to be 16 µg/mL with K. pneumoniae 5055 IMP-1 (meropenem alone); 64 µg/mL in the assay with K. pneumoniae A34 VIM-4 (meropenem alone); 16 µg/mL with K. pneumoniae B12 IMP-4 (meropenem alone); 16 µg/mL in the assay with K. pneumoniae B19 IMP-4 (meropenem alone); 16 µg/mL in the assay with K. pneumoniae IR16 NDM-1 (meropenem alone).

Take `Cc1cccc2c(-c3ccc(S(N)(=O)=O)cc3)c(C(=O)O)[nH]c12` [Example 6, 7-methyl-3-(4-sulfamoylphenyl)-1H-indole-2-carboxylic acid]: the IC50 is 316 nM in [1], 10 µM at IMP-1 (Imipenemase-1) and 15.8 nM in assay [2]. The Meropenem MIC in presence of inhibitor in the assay on E. coli IR60 was less than 0.25 µg/mL; with E. coli 25922 (control), less than 0.25 µg/mL; in assay [3] it was less than 0.25 µg/mL; in [4] it was 1 µg/mL; in the assay with E. coli EC10 NDM-1, 8 µg/mL; in the assay with K. pneumoniae 5055 IMP-1, 8 µg/mL. Besides, the Meropenem MIC in presence of inhibitor is 16 µg/mL in the assay with K. pneumoniae A34 VIM-4, 16 µg/mL in the assay with K. pneumoniae B12 IMP-4, 8 µg/mL in the assay with K. pneumoniae B19 IMP-4 and 2 µg/mL with K. pneumoniae IR16 NDM-1.

`Cc1cccc2c(-c3ccccc3C#N)c(C(=O)O)[nH]c12` [Example 28, 3-(2-cyanophenyl)-7-methyl-1H-indole-2-carboxylic acid]: the IC50 in assay [1] was 316 nM; on IMP-1 (Imipenemase-1), 25.1 µM; in assay [2] it was 63.1 nM.

`CC(C)c1cccc2c(-c3ccc(Cl)cc3)c(C(=O)O)[nH]c12` [Example 71, 3-(4-chlorophenyl)-7-isopropyl-1H-indole-2-carboxylic acid]: the values for the IC50 (in assay [1]; at IMP-1 (Imipenemase-1); in [2]) were 20 nM, 0.0398 µM and 3.98 nM, respectively.

As to `Cc1cccc2c(-c3ccncc3)c(C(=O)O)[nH]c12` [Example 4, 7-methyl-3-(pyridin-4-yl)-1H-indole-2-carboxylic acid], the IC50 was 631 nM in assay [1], 12.6 µM on IMP-1 (Imipenemase-1) and 63.1 nM in assay [2].
